In patent publication US10160867B2, “Benzoxaborole-containing coating resistant to cellulose-supportable fungus” (THE PENN STATE RESEARCH FOUNDATION, priority 2015, dated 2018):
Values after ≈ are worked out from the molar mass of the structure shown.

Columns and labels:
Alternaria alternata = test: Painted discs with or without UV irradiation before inoculation (defacement); format: cell-based; parameters: key: rating 10 = 0% defacement to 0 = 91-100% defacement; settings: +100 μg/mL in Olympic Home latex paint
Procedure: In a separate study, painted filter paper discs were irradiated with UV light from a 30 watt bulb for 2 hours and then inoculated with Alternaria alternata spores (“+UV” in the table below), or were inoculated without prior UV irradiation (“no UV” in the Table 4). The painted filter papers were incubated as discussed elsewhere herein, evaluated at 13 and 21 days post-inoculation for defacement by fungal growth and compared to similar painted filter paper discs that were not irradiated prior to inoculation.
Samples were evaluated at regular intervals. The intensity of the fungal growth was rated by estimating the percentage of surface defacement using the following ratings: 10: 0% defacement; 9=1-10% defacement; 8=11-20% defacement; 7=21-30% defacement; 6=31-40% defacement; 5=41-50% defacement; 4=51-60% defacement; 3=61-70% defacement; 2=71-80% defacement; 1=81-90% defacement; and 0=91-100% defacement. A grid that divides the circular area into 20 equal sections as shown in FIG. 1 was used to estimate the extent (percent defacement) of fungal growth.

[1] = +UV (30 watt bulb, 2 hours, before inoculation), 13 days
[2] = +UV (30 watt bulb, 2 hours, before inoculation), 21 days

Row | Structure (SMILES) | solubility (Solubility in water) | Average Defacement ± standard deviation for 3 replicates (Alternaria alternata; [1]) | Average Defacement ± standard deviation for 3 replicates (Alternaria alternata; [2]) | Average Defacement ± standard deviation for 3 replicates (Alternaria alternata; no UV, 13 days) | Average Defacement ± standard deviation for 3 replicates (Alternaria alternata; no UV, 21 days)
1 | OB1OCc2cc(F)ccc21 [Compound B9, 5-Fluoro-1,3-dihydro-2,1-benzoxaborol-1-ol] | 800 µg/mL (≈ 5.27 mM) | 10.0 ± 0.0 | 8.3 ± 2.1 | 10.0 ± 0.0 | 9.0 ± 0.0
2 | CCCCNC(=O)OCC#CI [IPBC, 3-Iodo-2-propynylbutylcarbamate] |  | 9.7 ± 0.6 | 6.0 ± 4.4 | 8.3 ± 2.1 | 4.0 ± 4.0
